From US5106863A, “Substituted imidazole and pyridine derivatives” (Ortho Pharmaceutical Corporation, priority 1990, dated 1992) come the findings set out here.

pIC50: −log10 of the molar value. Structures can show the parent of a compound that is named as a salt. Where two headings read alike, the source gives them in different places.

Experiment [1] has as its system stimulated parietal cells. The experiment in a line: Isolated Parietal Cell Assay: inhibition of 14C-aminopyrine accumulation in stimulated parietal cells. Particulars: 37° C. Type of experiment: cell-based, rabbit. Here is the method:
Isolated Parietal Cell Assay Using the procedures described in Batzri, S. et al., Biochemica et Biophysica Acta 508, 328 (1978), and Soll, H., Am. J. Physiol. 238, […] (1980), the example compounds were tested for their ability to inhibit ^14 C-aminopyrine accumulation in stimulated parietal cells. Parietal cells were isolated from the fundic mucosa of rabbit stomachs by a four-stage collagenese digestion process. The supernatant fraction from the last two stages of this process contain the individual parietal cells. This cell suspension was centrifuged and reconstituted in a modified Hank's buffer to contain 1-2×10^6 cells/ml. […] […] […] The flasks were incubated in a shaking water bath at 37° C. and gassed with 95% O2, 5% CO2 for 20 minutes. Three aliquots were then taken from each flask, and cell pellets were collected by centrifugation. The pellets were then solubilized with Protosol (NEN) and the radioactivity determined by liquid scintillation spectrometry.

The target of another experiment is T1, H^+ /K^+ ATPase (Oryctolagus cuniculus, UniProt P27112).
T1 construct: microsomes prepared from a crude homogenate of rabbit gastric mucosa using differential centrifugation; from tissue; host or cells: rabbit gastric mucosa (microsomes, vesicular membranes)
In words: Isolated H^+ /K^+ ATPase Assay: inhibition of K+ stimulated response in vesicular membranes from rabbit gastric mucosa. Type of experiment: biochemical. The conditions noted are these: 10 min preincubation, 15 min at 37° C. The protocol:
Isolated H^+ /K^+ ATPase Assay
Using the procedures described in Eibl, H. et al., Analytical Biochemistry 30, 51 (1969), Ganser, A. L. et al., Biochem. Biophys. Acta 307, 169 (1973), and Beil, W. et al., Br. J. Pharmac. 82, 651 (1984), the example compounds were tested for their ability to inhibit the H^+ /K^+ ATPase enzyme in the vesicular membranes from rabbit gastric mucosa. The H^+ /K^+ ATPase enzyme activity is present in microsomes prepared from a crude homogenate of rabbit gastric mucosa using differential centrifugation.
Assays were conducted in duplicate tubes in a 1 mL reaction volume consisting of 50 mM Tris buffer, 2mM MgCl2, ±10 mM KCl, 10 μl of example compound in dimethylsulfoxide and 20-30 μg of protein. The tubes were preincubated for 10 minutes in a 37° C. shaking water bath before the substrate, (Na2 ATP) was added. The mixture was then incubated for 15 minutes at 37° C. The reaction was stopped with 1 mL of 14% TCA and the tubes were centrifuged at 2000 rpm for 10 minutes.
The amount of inorganic phosphate (Pi) present in each sample was compared to a potassium phosphate standard curve.

Where [2] appears, read: Oryctolagus cuniculus, 20 min, DcAMP, read-out: Antisecretory Activity in Parietal Cell Assay, DcAMP (IC50).
Where [3] appears, read: Oryctolagus cuniculus, 20 min, HI, histamine-stimulated, read-out: Antisecretory Activity in Parietal Cell Assay, HI (IC50).

T1 sequence (P27112 2-1035 limits assumed): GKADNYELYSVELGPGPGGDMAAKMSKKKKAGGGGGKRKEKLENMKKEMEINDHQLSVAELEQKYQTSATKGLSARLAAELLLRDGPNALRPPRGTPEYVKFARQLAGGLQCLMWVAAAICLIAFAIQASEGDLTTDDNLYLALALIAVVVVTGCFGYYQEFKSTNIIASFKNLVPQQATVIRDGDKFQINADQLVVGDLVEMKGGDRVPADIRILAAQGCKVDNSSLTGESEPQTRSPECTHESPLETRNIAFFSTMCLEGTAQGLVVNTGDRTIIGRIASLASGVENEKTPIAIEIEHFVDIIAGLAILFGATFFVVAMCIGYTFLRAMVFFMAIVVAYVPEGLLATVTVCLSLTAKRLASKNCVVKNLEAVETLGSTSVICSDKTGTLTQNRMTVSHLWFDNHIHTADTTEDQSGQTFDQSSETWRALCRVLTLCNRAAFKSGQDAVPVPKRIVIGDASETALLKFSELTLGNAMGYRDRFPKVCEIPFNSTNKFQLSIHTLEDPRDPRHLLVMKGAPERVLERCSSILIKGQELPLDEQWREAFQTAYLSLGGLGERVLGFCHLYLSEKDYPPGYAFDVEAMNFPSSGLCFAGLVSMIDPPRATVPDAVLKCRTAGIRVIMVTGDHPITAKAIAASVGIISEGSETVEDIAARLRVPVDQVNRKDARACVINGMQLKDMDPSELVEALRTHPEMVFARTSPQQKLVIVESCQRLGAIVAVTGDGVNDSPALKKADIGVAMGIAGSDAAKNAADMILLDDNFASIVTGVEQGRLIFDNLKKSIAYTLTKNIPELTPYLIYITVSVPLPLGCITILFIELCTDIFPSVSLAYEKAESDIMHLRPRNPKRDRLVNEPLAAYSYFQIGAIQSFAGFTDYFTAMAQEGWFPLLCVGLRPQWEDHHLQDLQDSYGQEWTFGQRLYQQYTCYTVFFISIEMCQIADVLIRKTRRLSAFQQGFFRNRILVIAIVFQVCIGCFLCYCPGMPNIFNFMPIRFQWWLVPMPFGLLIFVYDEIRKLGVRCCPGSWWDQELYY
T1 sequence (P18597 whole entry partner): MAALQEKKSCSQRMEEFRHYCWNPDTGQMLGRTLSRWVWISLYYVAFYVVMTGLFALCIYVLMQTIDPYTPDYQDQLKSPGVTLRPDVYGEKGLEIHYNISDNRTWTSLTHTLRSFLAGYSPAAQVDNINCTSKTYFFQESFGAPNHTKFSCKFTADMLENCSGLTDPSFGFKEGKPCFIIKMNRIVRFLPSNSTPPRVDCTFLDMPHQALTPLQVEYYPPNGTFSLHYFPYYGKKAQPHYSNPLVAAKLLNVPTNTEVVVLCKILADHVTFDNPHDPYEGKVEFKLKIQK

Turning to `CSc1ccc(-c2nc3ccccc3n2C/C=C(\C)CCC=C(C)C)cc1` [Example 21, 1-(3,7-Dimethyl-2,6(E)-octadienyl)-2-(4-methylthiophenyl)-1H-1,3-benzimidazole Monooxalate.H2 O], the pIC50 was 5.52 in experiment [1] (setting [2]), 4.40 in experiment [1] (setting [3]) and 6.07 against H^+ /K^+ ATPase.

For `COc1ccc2[nH]c(SC/C=C(\C)CCC=C(C)C)nc2c1` [Example 4, 2-[(3,7-Dimethyl-2,6(E)-octadienyl)thio]-5-methoxy-1H-1,3-benzimidazole Monooxalate], the figures for the pIC50 in experiment [1] (setting [2]) and in experiment [1] (setting [3]) were 5.68 and 6.15, respectively.

In the case of `CC(C)=CCC/C(C)=C/Cn1c(CO)nc2ccccc21` [Example 19, 1-[3,7-Dimethyl-2,6(E)-octadienyl]-2-hydroxymethyl-1H-1,3-benzimidazole Hydrochloride.1/4H2 O], the pIC50 is 5.48 in experiment [1] (setting [2]), 5.70 in experiment [1] (setting [3]) and 4.82 at H^+ /K^+ ATPase.

For `CCCCCCCCSc1nc2cc(Cl)ccc2[nH]1` [Example 14, 5-Chloro-2-octylthio-1H-1,3-benzimidazole], the negative-log IC50 (pIC50) in experiment [1] (setting [3]) is 5.62.

On to `COc1c(C)cnc(Cn2c(SCC[C@@H](C)CCC=C(C)C)nc3ccccc32)c1C` [Example 9, 1-(3,5-Dimethyl-4-methoxy-2-pyridylmethyl)-2-[(3,7-dimethyl-6-octen-1-yl)thio]-1H-1,3-benzimidazole Monooxalate], for which the pIC50 in experiment [1] (setting [2]) is 5.90; in experiment [1] (setting [3]) it was 5.70; against H^+ /K^+ ATPase it was 5.52.

For the compound `CCCCCCCCSc1nc2cc(OC)ccc2[nH]1` [Example 13, 5-Methoxy-2-octylthio-1H-1,3-benzimidazole Hemioxalate Monohydrate], the pIC50 in experiment [1] (setting [3]) is 5.89.

In the case of `CC(C)=CCC/C(C)=C\CSc1nc2ccccc2n1C/C=C(/C)CCC=C(C)C` [Example 10, 1-(3,7-Dimethyl-2,6(Z)-octadienyl)-2-[(3,7-dimethyl-2,6(Z)-octadienyl)-thio]-1H-1,3-benzimidazole Monooxalate], the pIC50 in experiment [1] (setting [2]) was 5.96; in experiment [1] (setting [3]), 5.77.

Regarding `CC(C)=CCC/C(C)=C/CSc1nc2cc(C(F)(F)F)ccc2[nH]1` [Example 6, 5-Trifluoromethyl-2-[(3,7-dimethyl-2,6(E)-octadienyl)thio]-1H-1,3-benzimidazole], the pIC50 is 6.29 in experiment [1] (setting [2]) and 6.34 in experiment [1] (setting [3]).

`CC(C)=CCC/C(C)=C\CSc1nc2ccccc2[nH]1` [Example 11, 2-[(3,7-Dimethyl-2,6(Z)-octadienyl)-thio]-1H-1,3-benzimidazole.1/4Hydrate]: the pIC50 is 5.51 in experiment [1] (setting [2]) and 5.55 in experiment [1] (setting [3]).

Regarding `COc1c(C)cnc(Cn2c(SC/C=C(\C)CCC=C(C)C)nc3ccccc32)c1C` [Example 5, 1-(3,5-Dimethyl-4-methoxy-2-pyridylmethyl)-2-[(3,7-dimethyl-2,6(E)-octadienyl)thio]-1H-1,3-benzimidazole Monooxalate Hemihydrate], the pIC50 was 4.72 in experiment [1] (setting [2]), 5.40 in experiment [1] (setting [3]) and 5.49 at H^+ /K^+ ATPase.

For the compound `COc1ccc2ncn(C/C=C(\C)CCC=C(C)C)c2c1` [Example 18, 1-(3,7-Dimethyl-2,6(E)-octadienyl)-6-methoxy-1H-1,3-benzimidazole Monooxalate], the pIC50 in experiment [1] (setting [2]) is 6.07; in experiment [1] (setting [3]), 6.10; at H^+ /K^+ ATPase it was 4.55.

In the case of `CC(C)=CCC/C(C)=C/CSCc1ccccn1` [Example 15, 2-[3,7-Dimethyl-2,6(E)octadienylthiomethyl]pyridine.1/10 Hydrate], the negative logarithm of the IC50 (pIC50) in experiment [1] (setting [2]) is 5.54; in experiment [1] (setting [3]), 5.62; at H^+ /K^+ ATPase it was 5.02.

In the case of `CC(C)=CCC[C@H](C)CCSc1nccn1C` [Example 17, 3S-2-[(3,7-Dimethyl-6-octen-1-yl)thio]-1-methylimidazole], the pIC50 in experiment [1] (setting [2]) was 5.96; in experiment [1] (setting [3]) it was 5.77.

As to “5 (and 6)-Chloro-2-methyl-1-(3,7-dimethyl-2,6(E)-octadienyl)-1H-1,3-benzimidazoleMonohydrochloride.1/4H2 O [Example 20]”, the pIC50 in experiment [1] (DcAMP, 20 minutes, read-out: Antisecretory Activity in Parietal Cell Assay, DcAMP (IC50)) was 5.80; in experiment [1] (HI, histamine-stimulated, 20 minutes, read-out: Antisecretory Activity in Parietal Cell Assay, HI (IC50)), 6.37; against H^+ /K^+ ATPase, 5.00.

Consider `CC(C)=CCC/C(C)=C/CSc1nc2ccccc2[nH]1` [Example 1, 2-[(3,7-Dimethyl-2,6(E)-octadienyl)-thio]-1H-1,3-benzimidazole], for which the pIC50 in experiment [1] (setting [2]) is 5.67; in experiment [1] (setting [3]) it was 5.89.

On to `CC(C)=CCCC(C)CC[S+]([O-])c1nc2ccccc2[nH]1` (single isomer, unassigned; (+)) [Example 8, (+)-2-[(3,7-Dimethyl-6-octen-1-yl)sulfinyl]-1H-1,3-benzimidazole Monooxalate], for which the pIC50 in experiment [1] (setting [2]) is 4.48; in experiment [1] (setting [3]) it was 4.40; on H^+ /K^+ ATPase, 4.14.

Turning to `CCCCCCCCSc1nc2ccccc2[nH]1` [Example 12, 2-Octylthio-1H-1,3-benzimidazole], the pIC50 in experiment [1] (setting [2]) was 6.00; in experiment [1] (setting [3]) it was 5.72.

Consider `CC(C)=CCC/C(C)=C/CSc1nc2cc(F)c(Cl)cc2[nH]1` [Example 3, 6-Chloro-5-fluoro-2-[(3,7-dimethyl-2,6(E)-octadienyl)thio]-1H-1,3-benzimidazole.1/4Hydrate], for which the pIC50 in experiment [1] (setting [2]) was 5.64; in experiment [1] (setting [3]), 5.51; at H^+ /K^+ ATPase, 5.25.

As to `CC(C)=CCC[C@H](C)CCSc1nc2ccccc2[nH]1` [Example 7, 3S(+)-2-[(3,7-Dimethyl-6-octen-1-yl)thio]-1H-1,3-benzimidazole], the pIC50 in experiment [1] (setting [2]) and in experiment [1] (setting [3]) was 5.66 in each case.

As for `CC(C)=CCC/C(C)=C/CSc1nc2cc(Cl)ccc2[nH]1` [Example 2, 5-Chloro-2-[(3,7-dimethyl-2,6(E)-octadienyl)-thio]-1H-1,3-benzimidazole], the negative logarithm of the IC50 (pIC50) in experiment [1] (setting [2]) is 5.46; in experiment [1] (setting [3]), 5.64; against H^+ /K^+ ATPase it was 5.30.
